Tests used:
[1] = tested on: Pyricularia oryzae; conditions: Pyricularia oryzae (Rice); 18° C. for 7 days
[2] = tested on: Pyrenophora teres; test: Plant relevant mold panel, microtiter plate growth inhibition (OD 405 nm), IC 90; format: cell-based; conditions: Pyrenophora teres (Barley); 18° C. for 7 days
[3] = tested on: roundworms, threadworms, and whipworms; conditions: reported; cited from earlier work
[4] = tested on: Septonia tritici; test: Plant relevant mold panel, microtiter plate growth inhibition (OD 405 nm), IC 90; format: cell-based; conditions: Septonia tritici (Wheat Leaf); 18° C. for 7 days
[5] = tested on: Phytophthora infestans; conditions: Phytophthora infestans (Tomato); 18° C. for 7 days
[6] = tested on: Alternaria solani; conditions: Alternaria solani (Potato); 18° C. for 7 days
Procedure: (§1) A stock solution of the compound was prepared in DMSO at a concentration of 10,000 ppm a.i. Further dilutions were prepared with water. The test was conducted at the following concentrations: 125, 31, 8, 21, 0.5 and 0.125 ppm a.i. Spore suspensions of the fungi were prepared. The test was conducted in microtiter plates and for each fungus and each concentration, 3 wells were prepared. Incubation of the inoculated plates was carried out at 18° C. for 7 days. After this time, the optical density of the mycelium developed in each well was measured at 405 nm.

[7] = tested on: Cochliobolus mijabeanus; conditions: Cochliobolus mijabeanus (Corn); 18° C. for 7 days
Procedure: as §1

[8] = tested on: Botrytis cinerea; test: Plant relevant mold panel, microtiter plate growth inhibition (OD 405 nm), IC 90; format: cell-based; conditions: Botrytis cinerea (Vegetable); 18° C. for 7 days
[9] = tested on: Colletotrichum lagenarium; test: as above; format: cell-based; conditions: Colletotrichum lagenarium (Mellons); 18° C. for 7 days
[10] = tested on: Rhizoctonia solani; test: as above; format: cell-based; conditions: Rhizoctonia solani (Rice Sheath); 18° C. for 7 days
[11] = tested on: Fusarium culmorum; conditions: Fusarium culmorum (Wheat Head); 18° C. for 7 days
Procedure: as §1

[12] = tested on: Pseudomonas aerugenosa; conditions: in vitro, 24 hours at 35° C.
[13] = tested on: Microsporidium gypseum
[14] = tested on: Saccharomyces cervisciae
[15] = tested on: Epidermophyton floccsum
[16] = tested on: Candida albicans; conditions: in vitro, 24 hours at 35 degrees C.
[17] = tested on: Bordella bronchiseptica; conditions: in vitro, 24 hours at 35° C.
[18] = tested on: Streptococcus pyogenes; conditions: in vitro, 24 hours at 35° C.
[19] = tested on: Rhizopus arrihizus
[20] = tested on: Vibrio cholerae; conditions: in vitro, 24 hours at 35° C.
[21] = tested on: E. coli; conditions: in vitro, 24 hours at 35° C.
[22] = tested on: Streptococcus faecalis; conditions: in vitro, 24 hours at 35° C.
[23] = tested on: Cryptococcus neoformans; conditions: in vitro, 24 hours at 35 degrees C.
[24] = tested on: Trichophyton mentagrophyt
[25] = tested on: Trichophyton rubrum
[26] = tested on: Staphylococcus aureus; conditions: in vitro, 24 hours at 35° C.
[27] = tested on: Aspergillus fumigatus; conditions: in vitro, 24 hours at 35 degrees C.
[28] = tested on: Candida tropicalis; conditions: in vitro, 24 hours at 35 degrees C.
[29] = tested on: Pasturella multocida; conditions: in vitro, 24 hours at 35° C.
[30] = tested on: Trichophyton eguinium
[31] = tested on: Aspergillus flavus; conditions: in vitro, 24 hours at 35 degrees C.
[32] = tested on: Fusarium solani; conditions: in vitro, 24 hours at 35 degrees C.
[33] = tested on: Streptococcus algalactia; conditions: in vitro, 24 hours at 35° C.
[34] = tested on: Microsporidium canis

Compound: CC[n+]1c(/C=C/c2ccc(N3CCCC3)cc2)cccc1/C=C/c1ccc(N2CCCC2)cc1.[I-] [Stilbazium iodide]
- IC90 [1]: 8 ppm a.i.
- IC90 [2]: 31 ppm a.i.
- anthelmintic effectiveness [3]: effective
- IC90 [4]: 2 ppm a.i.
- IC90 [5]: 2 ppm a.i.
- IC90 [6]: >125 ppm a.i.
- IC90 [7]: >125 ppm a.i.
- IC90 [8]: 0.5 ppm a.i.
- IC90 [9]: 31 ppm a.i.
- IC90 [10]: 2 ppm a.i.
- IC90 [11]: >125 ppm a.i.

Compound: Stilbazium Chloride [formula I]
- MIC [12]: >100 µg/mL
- MIC [13]: 1.6 µg/mL
- MIC [14]: <0.4 µg/mL
- MIC [15]: 1.6 µg/mL
- MIC [16]: <0.006 µg/mL
- MIC [17]: 1.0 µg/mL
- MIC [18]: 1.0 µg/mL
- MIC [19]: 6.25 µg/mL
- MIC [20]: 10.0 µg/mL
- MIC [21]: >100 µg/mL
- MIC [22]: 1.0 µg/mL
- MIC [23]: <0.4 µg/mL
- MIC [24]: 1.6 µg/mL
- MIC [25]: 1.6 µg/mL
- MIC [26]: 0.3 µg/mL
- MIC [27]: <0.006 µg/mL
- MIC [28]: <0.4 µg/mL
- MIC [29]: 3.0 µg/mL
- MIC [30]: 1.6 µg/mL
- MIC [31]: 6.25 µg/mL
- MIC [32]: <0.4 µg/mL
- MIC [33]: 1.0 µg/mL
- MIC [34]: 1.6 µg/mL

Source: US7547444B1, “Methods for controlling fungi and bacteria” (priority 2003, dated 2009)
